Data on three molecules can be found in ChEMBL document CHEMBL1146890, “Arylaminoethyl carbamates as a novel series of potent and selective cathepsin S inhibitors” (Bioorg Med Chem Lett, 2006).

What all share (format): ADME, organism-based
Data set [1] can be described thus: Half life in Wistar rat at 10 mg/kg, po. Details: dose 10 mg/kg, route oral. The settings on record: in vivo.
A short description of data set [2]: Half life in Wistar rat at 3 mg/kg, iv. The arrangement: dose 3 mg/kg, route intravenous. The settings on record: in vivo.
Data set [3] is described as follows: Cmax in Wistar rat at 10 mg/kg, po. Details: dose 10 mg/kg, route oral. The settings on record: in vivo.
A short description of data set [4]: Volume of distribution in Wistar rat at 3 mg/kg, iv. Particulars: in vivo, read-out: Vdss. The arrangement: dose 3 mg/kg, route intravenous.
Data set [5] is described as follows: AUC in Wistar rat at 10 mg/kg, po. Details: dose 10 mg/kg, route oral. Particulars: plasma.
Data set [6] can be described thus: Clearance in Wistar rat at 3 mg/kg, iv. The arrangement: dose 3 mg/kg, route intravenous. Particulars: in vivo.
Data set [7] in a line: Oral bioavailability in Wistar rat at 10 mg/kg, po. The settings on record: in vivo.

The structures appear in SMILES notation.

As for `C[C@@H](CN1CC(C)(C)c2cc(F)ccc21)NC(=O)[C@H](CC1CCCCC1)NC(=O)N1CCOCC1`, the half-life was 0.85 h in data set [1] and 0.717 h in data set [2]. Moreover, the peak concentration (Cmax) in data set [3] was found to be 118 nM. Also, the Vd in data set [4] came to 1.76 L/kg. In addition, the exposure (AUC) in data set [5] is 133 ng·h/mL. Besides, the clearance in data set [6] came to 52 mL/min/kg. Further, in data set [7], the bioavailability came to 4%.
For `C[C@@H](CN1CC(C)(C)c2cc(F)ccc21)NC(=O)O[C@@H](CC1CCCCC1)C(=O)N1CCOCC1`, the half-life was 1.15 h in data set [1] and 1.67 h in data set [2]. For the same molecule, in data set [3], the maximum concentration (Cmax) was determined as 774 nM. Further, the Vd in data set [4] amounted to 4.1 L/kg. This molecule gave an area under the curve (AUC) in data set [5] of 1350 ng·h/mL. This molecule also came in with a clearance in data set [6] of 52 mL/min/kg. In data set [7], this molecule returned a bioavailability of 42%.
In the case of `C[C@@H](CN1c2ccc(F)cc2CC1(C)C)NC(=O)O[C@@H](CC1CCCCC1)C(=O)N1CCOCC1`, the half-life in data set [1] came out at 1.03 h; in data set [2], 1.37 h. The Cmax in data set [3] amounted to 513 nM. Besides, the Vd in data set [4] was found to be 3.1 L/kg. The AUC in data set [5] is 733 ng·h/mL. Besides, the clearance in data set [6] was found to be 52 mL/min/kg. Besides, the bioavailability in data set [7] came out at 23%.

A word on the half-life: it is the time in which the quantity being followed falls by half. The low end stands for fast loss, the high end for slow loss. In general, Cmax refers to the maximum level reached in the sampled fluid or tissue. Broadly, the AUC is the area under the concentration-time curve, a measure of exposure. As a reminder, the clearance is a measure of how efficiently the substance is removed, as volume per time. A high value points to a high capacity for elimination. The bioavailability is the share of a dose that reaches the circulation, judged against a reference dose that is usually intravenous. A lower bioavailability goes with poor availability.
